The values below are quoted from earlier work in article PMC6329039 (Molecular Pain, 2019).

This data set relates to STAT3. Conditions: thermal shift assays ref 33.

Structures are written as SMILES.

As for `CN(CC(=O)N(Cc1ccc(C2CCCCC2)cc1)c1ccc(C(=O)O)c(O)c1)S(=O)(=O)c1c(F)c(F)c(F)c(F)c1F` [BP-1–102], the “binding to and degradation of STAT3” value is “specifically bind to and induce the degradation of STAT3”.
